What all share (assay): NCI-60 cell line screen, 48 h
Assay [1] deals with KM20L2 colon.
For assay [2], the system named is DLD-1 colon.
Assay [3] concerns XF 498 CNS.
For assay [4], the system named is M19-MEL melanoma.
Assay [5] concerns DMS 273 small cell lung.
Assay [6] relates to DMS 114 small cell lung.
For assay [7], the system named is HOP-18 NSCLC.
The subject of assay [8] is MDA-MB-435.
For assay [9], the system named is BT-549 breast.
In assay [10] the test system is DU-145 prostate.
Assay [11] concerns MCF7 breast.

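In this assay, cells in 96-well plates receive the compound at five concentrations for 48 hours. Endpoints are linearly interpolated between the surrounding concentrations. GI50 is the concentration that inhibits growth by half. TGI marks complete inhibition of growth.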 Where only a bound is given, the exact number is not on record here.

Data on 30 compounds can be found in PubChem BioAssay (NCI).

With `CC(=O)NC1=C(NCC(C)(C)C)C(=O)c2ccccc2C1=O`, the TGI is greater than 100 µM in assay [1]; greater than 100 µM in [2]; 65.5 µM in assay [3]; 39.8 µM in [4]; greater than 100 µM in [5].
Regarding `CCOC(=O)COc1cccc2c1C(=O)CCO2`, the TGI in assay [1], in [2], in [3], in assay [4], in assay [6] and in assay [5] was greater than 100 µM each time.
With `O=C(O)CCSC(=O)Nc1cccc(F)c1`, the TGI in assay [1], in assay [6] and in assay [5] was greater than 100 µM throughout.
With `COC(=O)[C@@]12C3=NO[C@]1(C(=O)OC)C(O[Si](C)(C)C(C)(C)C)[C@H]1OC(C)(C)O[C@H]1[C@@H]2C(OCc1ccccc1)CC3` (stereo not given in full), the TGI in [1], in [7], in assay [2], in [4], in assay [6] and in assay [5] was greater than 100 µM throughout.
Regarding `O=C1NC2(CCCCC2)C2CCCCC(O)C12` (stereo not given), the TGI in assay [1], in [2], in assay [4], in assay [6] and in [5] was greater than 100 µM each time.
`Cc1cc(=O)[nH]c(NNC(C#N)c2cccc(O)c2)n1` (stereo not given): the TGI in assay [1], in [7], in assay [2], in [4], in [6] and in assay [5] was greater than 100 µM in each case.
Consider `COc1ccc2c(c1)C1(C=N2)CCN(C(C)=O)CC1`, for which the TGI in [1], in assay [7], in assay [2], in [4], in assay [6] and in assay [5] was greater than 100 µM throughout.
As for `CC1(C)OC(=O)C(=Cc2ccc(O)cc2)C(=O)O1`, the TGI in assay [1], in assay [3], in assay [4], in assay [6] and in assay [5] was greater than 100 µM in each case.
For `COc1ccccc1NC(=O)CC(=O)n1nc(C)c(N=Nc2ccccc2C(=O)O)c1C`, the TGI in assay [1], in [2], in [3], in [4], in [6] and in assay [5] was greater than 100 µM in each case.
For `Nc1ccc(C(=O)N/C(=C\c2ccc3c(c2)OCO3)c2nc3[nH]c(=S)[nH]c(=O)c3[nH]2)cc1`, the TGI in assay [1], in [2], in assay [3] and in assay [4] was greater than 100 µM each time.
On to `CCc1ccc2c(c1)C(=O)c1c-2n(CCCBr)c(=O)c2cc([N+](=O)[O-])ccc12`, for which the GI50 in assay [8] was greater than 50 µM; in assay [9], greater than 50 µM; in [10] it was greater than 50 µM; in assay [11], 19.9 µM. Also, the TGI in [8], in assay [9], in [10] and in assay [11] was greater than 50 µM in each case.
Consider `O=C(/C=C/c1ccccc1Cl)c1ccc(Cl)c(Cl)c1`, for which the TGI was found to be 31.1 µM in assay [1]; 32 µM in assay [7]; 30.1 µM in [2]; 29.8 µM in [4]; 37.5 µM in [5].
Take `O=[S@@]1Nc2ccc(Br)cc2S1`: the TGI in assay [1], in assay [2], in assay [3], in assay [4] and in [5] was greater than 100 µM in each case.
As for `Nc1cc2nc3ccccc3sc-2cc1=O`, the GI50 in assay [8] is 1.76 µM; in assay [9] it was 1.61 µM; in assay [10] it was 1.77 µM; in [11] it was 2.38 µM. Moreover, the TGI amounted to 3.26 µM in [8], 3.32 µM in [9], 3.25 µM in assay [10] and 9.63 µM in [11].
Turning to `Cc1cc2nc(C(Cl)Cl)nc(-c3ccc(Cl)cc3)n2n1`, the GI50 in assay [8] was 1.26 µM; in [9], 2.75 µM; in assay [10], 0.268 µM; in assay [11] it was 0.465 µM. For the same compound, the TGI is 2.79 µM in assay [8], greater than 100 µM in [9], 0.827 µM in [10] and 5.1 µM in assay [11].
For the compound `C=CCc1cc(OC)c2c(c1)C(O)CC(c1ccc(OC)c(OC)c1)O2` (stereo not given), the TGI in assay [1], in [7], in [2], in [4], in assay [6] and in assay [5] was greater than 100 µM each time.
As for `O=C1c2cccnc2-c2nc(-c3ccccc3[N+](=O)[O-])cc3c2c1nc1ccccc13`, the GI50 in [8] is 7.1 µM; in assay [9], 16.7 µM; in assay [10], 14.9 µM; in [11], 3.25 µM. Moreover, the TGI turned out to be 22.2 µM in [8], 73.2 µM in [9], 33.3 µM in assay [10] and 15.4 µM in assay [11].
Turning to `N#CC(C#N)=c1ccc(=C2NCC3CCCN23)cc1` (stereo not given), the TGI in assay [1], in [7], in assay [4], in assay [6] and in [5] was greater than 100 µM throughout.
Regarding `Cc1nc2c(nc1C)C(=O)c1ccccc1C2=O`, the TGI in [1] was determined as 36.3 µM; in assay [7] it was 9.53 µM; in assay [2], 47.9 µM; in assay [8], 0.365 µM; in assay [9], 3.15 µM; in assay [4], 1.07 µM. The TGI in [10] was 2.72 µM; in [6] it was greater than 46 µM; in [11], 3.59 µM; in [5], 15.3 µM.
As to `COc1ccc(-n2/c(=N/C(=S)N(C)C)ss/c2=N\C(=S)N(C)C)cc1`, the TGI in assay [1], in assay [4], in assay [6] and in [5] was greater than 100 µM each time.
With `O=C1C2=C(SCCS2)C(=O)c2ccccc21`, the TGI in assay [1] worked out at 3.52 µM; in assay [2], 3.53 µM; in assay [3] it was 3.01 µM; in assay [4], 0.616 µM; in [6], 2.09 µM; in assay [5], 3.31 µM.
Regarding `Clc1cccc(Cc2cn3cc(-c4ccccc4)nc3s2)c1Cl`, the GI50 was 3.59 µM in assay [8], 88.2 µM in assay [9], 22.4 µM in [10] and 11.5 µM in assay [11]. Moreover, the TGI in assay [8], in assay [9], in assay [10] and in assay [11] was greater than 100 µM throughout.
Consider `CC(=O)N1[C@H](C(=O)O)CS[C@H]1c1ccncc1`, for which the TGI in [1], in [7], in assay [2], in assay [4] and in assay [6] was greater than 100 µM in each case.
For the compound `O=C(N/C(=C\c1cc(Cl)ccc1Cl)c1nc2[nH]c(=S)[nH]c(=O)c2[nH]1)c1ccccc1`, the TGI was greater than 100 µM in assay [1]; greater than 64.7 µM in assay [2]; greater than 100 µM in [3]; greater than 68.6 µM in assay [4]; greater than 82.5 µM in assay [6].
Regarding `CCOC(=O)c1ncn2c1[nH]c(=S)c1ccccc12`, the TGI in [1], in [7], in assay [2], in assay [4], in assay [6] and in assay [5] was greater than 100 µM throughout.
Regarding `CN(C)c1ccc(-c2cc(-c3ccc(Nc4nc(Nc5ccc(Cl)cc5)nc(Nc5ccc(Cl)cc5)n4)cc3)no2)cc1`, the GI50 is 3.33 µM in assay [8], 9.07 µM in [9], 3.86 µM in assay [10] and 2.46 µM in assay [11]. Also, the TGI was 32.3 µM in assay [8], 48.9 µM in assay [9], 16.4 µM in [10] and 10.7 µM in [11].
`COc1ccc(-c2cc(=O)c3ccc(O)cc3o2)c(OC)c1OC`: the TGI in assay [1], in assay [2], in assay [3], in assay [4] and in [6] was greater than 100 µM in each case.
In the case of `O=C(CSC(=S)N1CCCCC1)Nc1nc2c(s1)CCCC2`, the TGI was greater than 100 µM in assay [1]; greater than 100 µM in assay [2]; 71.3 µM in [3]; greater than 100 µM in assay [4]; greater than 100 µM in assay [6]; greater than 100 µM in [5].
As for `CCOC(=O)C1=C(C)CC2C(=O)OC(=O)C2C1(C)C` (stereo not given), the TGI in assay [7], in [2], in assay [4] and in [6] was greater than 100 µM each time.
Consider `O=C(Nc1ccc(F)cc1F)c1cc(I)ccc1O`, for which the GI50 was 3.02 µM in assay [8], 1.99 µM in assay [9], 3.87 µM in [10] and 2.77 µM in [11]. Moreover, the TGI is 10.1 µM in [8], 5.16 µM in assay [9], greater than 100 µM in assay [10] and greater than 100 µM in [11].
